Experimental data as given in the SangsterLogP compilation.

Experiment: method code SF-AS, from DOI: 10.1021/jm00244a011, PMID: 808606

Row | Structure (SMILES) | logP
1 | O=C(O)CCN1C(=O)C=CC1=O | 0.04
2 | O=C(O)CCCCCCCN1C(=O)C=CC1=O | 1.99
3 | O=C(O)CCCCCN1C(=O)C=CC1=O | 1.15
4 | O=C(O)CN1C(=O)C=CC1=O | -0.14

The remaining lines, values ahead:

Row | logP | Structure (SMILES)
5 | 0.4 | O=C(O)CCCN1C(=O)C=CC1=O
6 | 0.49 | CCOC(=O)CN1C(=O)C=CC1=O
7 | 0.6 | O=C(O)CCCCN1C(=O)C=CC1=O
8 | 0.67 | CCOC(=O)CCCN1C(=O)C=CC1=O
9 | 1.5 | CCOC(=O)CCCCCN1C(=O)C=CC1=O
10 | 0.41 | CCOC(=O)CCN1C(=O)C=CC1=O
